In one series the target is T1, hTLR9 (Homo sapiens, UniProt Q9NR96).
T1 sequence (Q9NR96 26-1032): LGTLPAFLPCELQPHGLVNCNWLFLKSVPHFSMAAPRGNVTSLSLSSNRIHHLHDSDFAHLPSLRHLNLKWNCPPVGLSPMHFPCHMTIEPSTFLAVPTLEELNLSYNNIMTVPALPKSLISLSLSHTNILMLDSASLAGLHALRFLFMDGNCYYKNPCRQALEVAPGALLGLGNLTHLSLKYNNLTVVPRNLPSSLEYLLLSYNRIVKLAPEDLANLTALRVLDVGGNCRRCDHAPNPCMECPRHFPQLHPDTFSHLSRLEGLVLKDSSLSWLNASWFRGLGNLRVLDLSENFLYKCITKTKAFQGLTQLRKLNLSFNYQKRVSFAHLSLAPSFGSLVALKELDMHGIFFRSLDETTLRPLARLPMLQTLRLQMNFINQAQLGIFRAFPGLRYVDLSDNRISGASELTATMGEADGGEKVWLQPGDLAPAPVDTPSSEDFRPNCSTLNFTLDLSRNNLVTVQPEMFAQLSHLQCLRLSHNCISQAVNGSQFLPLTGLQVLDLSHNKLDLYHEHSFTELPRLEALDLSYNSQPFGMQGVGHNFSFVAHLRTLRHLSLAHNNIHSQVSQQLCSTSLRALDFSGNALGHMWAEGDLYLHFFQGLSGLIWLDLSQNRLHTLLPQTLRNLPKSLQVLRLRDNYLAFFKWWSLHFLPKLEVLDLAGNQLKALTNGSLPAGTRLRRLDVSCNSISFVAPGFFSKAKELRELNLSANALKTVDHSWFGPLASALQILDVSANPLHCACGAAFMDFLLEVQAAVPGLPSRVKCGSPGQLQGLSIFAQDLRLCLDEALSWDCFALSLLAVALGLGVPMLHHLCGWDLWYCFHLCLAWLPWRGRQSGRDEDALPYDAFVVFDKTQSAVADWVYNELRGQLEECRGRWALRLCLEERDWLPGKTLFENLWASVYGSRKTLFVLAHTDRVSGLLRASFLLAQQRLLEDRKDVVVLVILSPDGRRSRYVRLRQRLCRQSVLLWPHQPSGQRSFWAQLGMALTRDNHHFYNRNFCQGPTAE
Also on record: host or cells: HEK. The settings on record: data disclosed in US20150105370; read-out: HEK/hTLR9 IC50; cited from earlier work.

The next series deals with T2, hTLR7 (Homo sapiens, UniProt Q9NYK1).
T2 sequence (Q9NYK1 27-1049): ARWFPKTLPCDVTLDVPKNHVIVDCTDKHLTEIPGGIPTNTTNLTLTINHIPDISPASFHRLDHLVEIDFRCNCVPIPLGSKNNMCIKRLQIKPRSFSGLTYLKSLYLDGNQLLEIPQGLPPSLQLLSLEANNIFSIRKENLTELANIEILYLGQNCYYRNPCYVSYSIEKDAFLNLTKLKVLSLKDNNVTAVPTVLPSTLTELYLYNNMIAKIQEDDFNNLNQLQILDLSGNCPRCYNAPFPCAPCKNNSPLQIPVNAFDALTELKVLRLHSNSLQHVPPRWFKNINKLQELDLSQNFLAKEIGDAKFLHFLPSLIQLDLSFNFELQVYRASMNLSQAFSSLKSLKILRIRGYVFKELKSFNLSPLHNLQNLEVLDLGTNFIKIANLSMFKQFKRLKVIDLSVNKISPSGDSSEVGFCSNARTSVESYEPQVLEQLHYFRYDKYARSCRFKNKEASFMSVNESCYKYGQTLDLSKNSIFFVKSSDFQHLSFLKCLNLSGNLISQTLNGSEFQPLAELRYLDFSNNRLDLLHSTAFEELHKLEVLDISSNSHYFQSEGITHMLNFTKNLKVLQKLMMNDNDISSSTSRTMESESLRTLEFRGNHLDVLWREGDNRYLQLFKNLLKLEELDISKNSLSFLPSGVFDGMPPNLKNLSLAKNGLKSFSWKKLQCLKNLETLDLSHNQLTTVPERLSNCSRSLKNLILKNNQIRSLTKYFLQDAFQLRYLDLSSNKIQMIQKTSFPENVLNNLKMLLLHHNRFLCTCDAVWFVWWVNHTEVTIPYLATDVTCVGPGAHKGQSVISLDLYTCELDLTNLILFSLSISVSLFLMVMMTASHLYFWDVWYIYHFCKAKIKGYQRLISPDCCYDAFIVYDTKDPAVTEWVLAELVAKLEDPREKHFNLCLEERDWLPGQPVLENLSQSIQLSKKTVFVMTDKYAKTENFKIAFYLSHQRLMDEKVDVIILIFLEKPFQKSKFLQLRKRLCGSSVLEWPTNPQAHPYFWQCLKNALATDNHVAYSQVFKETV
Also noted: host or cells: HEK. To be noted: data disclosed in US20150105370; read-out: HEK/hTLR7 IC50; cited from earlier work.

Series [1] in a line: Human microsome stability assay. Type of series: in vitro ADME. To be noted: human liver microsomes, 1 µM test compound, 0.5 mg/mL protein, 37°C, up to 30 minutes. The method, then:
Human microsome stability assay
The human microsomal stability assay is used for early assessment of metabolic stability of a test compound in human liver microsomes.
Human liver microsomes (Cat.NO.: 452117, Corning, USA;Cat.NO.:H2610, Xenotech, USA) were preincubated with test compound for 10 minutes at 37°C in 100 mM potassium phosphate buffer, pH 7.4. The reactions were initiated by adding NADPH regenerating system. The final incubation mixtures contained 1 µM test compound, 0.5 mg/mL liver microsomal protein, 1 mM MgCl2, 1 mM NADP, 1 unit/mL isocitric dehydrogenase and 6 mM isocitric acid in 100 mM potassium phosphate buffer, pH 7.4. After incubation times of 0, 3, 6, 9, 15 and 30 minutes at 37°C, 300 µL of cold acetonitrile (including internal standard) was added to 100 µL incubation mixture to terminate the reaction. Following precipitation and centrifugation, the amount of compound remaining in the samples were determined by LC-MS/MS. Controls of no NADPH regenerating system at zero and 30 minutes were also prepared and analyzed. […] Table 3. Human liver microsome stability of the compounds of present invention

pIC50: −log10 of the molar value.

For `Cc1cccc(NC[C@H]2CN(c3ccc(C#N)c4ncccc34)C[C@@H](C)O2)n1` [ER-886799], the pIC50 on hTLR9 is < 5.70; at hTLR7, 8.15.

Consider `Cc1cccc(NC[C@H]2CN(c3ccc(C#N)c4ncccc34)C[C@@H](C)O2)c1` [ER-886602], for which the pIC50 is < 4.70 on hTLR9 and 6.73 on hTLR7. In the case of `C[C@@H]1CN(c2ccc(C#N)c3ncccc23)C[C@H](CNc2ccccc2)O1` [ER-886601], the values for the pIC50 at hTLR9 and at hTLR7 were < 5.70 and 7.82, respectively. `C[C@@H]1CN(c2ccc(C#N)c3nccnc23)C[C@H](CN2Cc3ccc(N4CC5CCC(C4)N5)cc3C2)O1` [Example 44, 8-[(2S,6R)-2-[[5-(3,8-diazabicyclo[3.2.1]octan-3-yl)isoindolin-2-yl]methyl]-6-methyl-morpholin-4-yl]quinoxaline-5-carbonitrile]: the “Clearance of Human microsome” value in series [1] is listed as 6.94 mL/min/kg. On the same count and under the same terms, under `C[C@@H]1CN(c2ccc(C#N)c3ncccc23)C[C@H](CN2Cc3ccc(N4CCNCC4C(=O)O)cc3C2)O1` (stereo partly drawn) [Example 56, 1-[2-[[(2S,6R)-4-(8-cyano-5-quinolyl)-6-methyl-morpholin-2-yl]methyl]isoindolin-5-yl]piperazine-2-carboxylic acid] stands 6.51 mL/min/kg. Regarding `Cc1nc2cc(NC[C@H]3CN(c4ccc(C#N)c5ncccc45)C[C@@H](C)O3)ccc2n1C` [ER-886608], the values for the pIC50 at hTLR9 and on hTLR7 were 5.47 and 7.89, respectively.
